From patent publication US12319687B2, “Indole alkaloid compound in noni enzyme and preparation method and application thereof” (HAINAN NORMAL UNIVERSITY, priority 2020, dated 2025) come the findings set out here.

The data set is described as follows: Physical and chemical properties: solubility. It is filed as physicochemical. The conditions noted are these: in water, methanol, DMSO. As to the method: The physical and chemical properties, hydrogen spectrum and mass spectrometry detection data of each compound are as follows:
It is calculated by a HR-ESI-MS [m/z 225.1406, calculated value being 225.1465] that a molecular weight of the compound is 202, a molecular formula is C12H14N2O, and a degree of unsaturation is 7.
It is calculated by the HR-ESI-MS [m/z 225.1406, calculated value being 225.1465] that a molecular weight of the compound is 202, a molecular formula is C12H14N2O, and a degree of unsaturation is 7.

Regarding `C[C@H]1N[C@H](O)Cc2c1[nH]c1ccccc21` [Compound 1, Noni alkaloid C], the solubility result is “easily soluble in water, methanol, DMSO”. For the compound `C[C@H]1N[C@@H](O)Cc2c1[nH]c1ccccc21` [Compound 2, Noni alkaloid D], the solubility result is listed as “easily soluble in water, methanol, DMSO”.
